The text below walks through data of PubChem BioAssay (NCI).

Several values for one entry are separate records, joined by “and”; a condition that tells them apart may be missing. Equal entries are not always repeated.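 Grown in 96-well plates, cells were treated for 48 hours with each compound at five concentrations. Insufficient inhibition: endpoint recorded as highest concentration tested. GI50 = concentration required for 50% inhibition of growth. TGI: concentration producing complete growth inhibition.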 Bounds are passed on as bounds.

Among the test systems are SK-MEL-2 melanoma; HL-60(TB) leukemia; A549 NSCLC; SK-MEL-28 melanoma; NCI/ADR-RES ovarian; HCC-2998 colon; MDA-MB-231 breast; DU-145 prostate; IGROV1 ovarian; OVCAR-5 ovarian; UACC-62 melanoma.
What all share (assay): DTP human tumour cell line panel, 48 h

The term TGI denotes the concentration at which net growth stops. A higher TGI goes with less potent growth arrest. For `COc1cc2c(cc1OC)C(=O)N(c1ccc(O)cc1)C2=O`, the TGI with SK-MEL-2 melanoma, in the test on HL-60(TB) leukemia, in the test on A549 NSCLC, in the test with SK-MEL-28 melanoma, with NCI/ADR-RES ovarian and in the test with HCC-2998 colon was over 100 µM throughout. The TGI in the test with MDA-MB-231 breast, in the test with DU-145 prostate, in the test with IGROV1 ovarian, in the test with OVCAR-5 ovarian and in the test with UACC-62 melanoma was over 100 µM each time.
As for `NC(N)=NC(N)=Nc1ccc(S(=O)(=O)O)cc1`, the total growth inhibition concentration (TGI) in the test with SK-MEL-2 melanoma, with HL-60(TB) leukemia, with A549 NSCLC, in the test on SK-MEL-28 melanoma, in the test with NCI/ADR-RES ovarian and in the test with HCC-2998 colon was over 100 µM in each case. Moreover, the TGI in the test on MDA-MB-231 breast, in the test with DU-145 prostate, in the test with IGROV1 ovarian, in the test on OVCAR-5 ovarian and in the test on UACC-62 melanoma was over 100 µM throughout.
For the compound `c1cc2c(cc1NC1=NCCO1)OCO2`, the TGI with SK-MEL-2 melanoma, in the test with HL-60(TB) leukemia, in the test with A549 NSCLC, in the test with SK-MEL-28 melanoma, in the test with NCI/ADR-RES ovarian and with HCC-2998 colon was over 100 µM in each case. Moreover, the TGI in the test with MDA-MB-231 breast, in the test on DU-145 prostate, in the test on IGROV1 ovarian, in the test with OVCAR-5 ovarian and in the test with UACC-62 melanoma was over 100 µM throughout.
For `COc1ccc(-n2c(N)c(C#N)[nH]c2=O)cc1`, the TGI in the test with SK-MEL-2 melanoma, in the test on HL-60(TB) leukemia, in the test with A549 NSCLC, in the test on SK-MEL-28 melanoma, in the test with NCI/ADR-RES ovarian and in the test with HCC-2998 colon was over 10 µM in each case. In addition, the TGI in the test on MDA-MB-231 breast, in the test on DU-145 prostate, in the test with IGROV1 ovarian, in the test with OVCAR-5 ovarian and with UACC-62 melanoma was over 10 µM throughout.
Consider `[N-]=[N+]=NC1OC(=O)C(Cl)=C1N=P(c1ccccc1)(c1ccccc1)c1ccccc1` (centres undefined), for which the TGI with SK-MEL-2 melanoma, in the test on HL-60(TB) leukemia, with A549 NSCLC, in the test with SK-MEL-28 melanoma, with NCI/ADR-RES ovarian and in the test on HCC-2998 colon was over 10 µM throughout. In addition, the TGI in the test with MDA-MB-231 breast, in the test on DU-145 prostate, in the test with IGROV1 ovarian, with OVCAR-5 ovarian and in the test with UACC-62 melanoma was over 10 µM in each case.
On to `NC(=O)N/N=C(/CC1C(=O)Oc2ccccc21)c1ccccc1O` (centres undefined), for which the TGI is over 100 µM in the test with SK-MEL-2 melanoma; 51 µM in the test with HL-60(TB) leukemia; over 100 µM in the test on A549 NSCLC; over 100 µM with SK-MEL-28 melanoma; 98.2 µM in the test on NCI/ADR-RES ovarian; 91.1 µM in the test on HCC-2998 colon. Also, the TGI was over 100 µM with MDA-MB-231 breast; over 100 µM in the test on DU-145 prostate; over 100 µM with IGROV1 ovarian; over 100 µM in the test on OVCAR-5 ovarian; 63.6 µM in the test on UACC-62 melanoma.
On to `Nc1nc(Cl)c(N)c(NCC2(CO)CC2)n1`, for which the TGI in the test on SK-MEL-2 melanoma, in the test on HL-60(TB) leukemia, in the test with A549 NSCLC, in the test on SK-MEL-28 melanoma, in the test with NCI/ADR-RES ovarian and in the test with HCC-2998 colon was over 100 µM in each case. For the same compound, the TGI with MDA-MB-231 breast, in the test on DU-145 prostate, in the test on IGROV1 ovarian, in the test on OVCAR-5 ovarian and in the test with UACC-62 melanoma was over 100 µM in each case.
By GI50 is commonly meant the concentration at which growth is held to half of that of the control. On to `CN(Cc1cnc2nc(N)nc(N)c2n1)c1ccc(C(=O)N[C@@H](CCC(=O)O)C(=O)O)cc1`, for which the TGI is over 250 µM in the test on SK-MEL-2 melanoma; 178 µM with HL-60(TB) leukemia; over 250 µM in the test on A549 NSCLC; over 250 µM in the test on SK-MEL-28 melanoma; over 250 µM in the test with NCI/ADR-RES ovarian; 191 µM and > 250 µM in the test with HCC-2998 colon. For the same compound, the TGI in the test on MDA-MB-231 breast is over 250 µM; with DU-145 prostate, over 250 µM; in the test with IGROV1 ovarian it was 212 µM and > 250 µM; in the test on OVCAR-5 ovarian it was 207 µM and > 250 µM; in the test on UACC-62 melanoma it was 41.4 µM and > 250 µM. Besides, the GI50 in the test on HL-60(TB) leukemia was 0.0259 µM; in the test with SK-MEL-28 melanoma it was 3.27 µM.
In the case of `CS(=O)(=O)OCCN(CCOS(C)(=O)=O)c1ccc(C=Nc2cccc(Cl)c2)cc1`, the TGI in the test on SK-MEL-2 melanoma is 66.5 µM; in the test on HL-60(TB) leukemia, over 100 µM; in the test on A549 NSCLC, 29.2 µM; with SK-MEL-28 melanoma, over 30.4 µM; in the test on NCI/ADR-RES ovarian, 27.3 µM; in the test with HCC-2998 colon, 19.7 µM. The TGI with MDA-MB-231 breast is 48.6 µM; with DU-145 prostate, over 100 µM; in the test on IGROV1 ovarian it was over 87.8 µM; in the test on OVCAR-5 ovarian it was 17.7 µM; with UACC-62 melanoma, 15.6 µM.
With `CC(=O)OC12C3C4C1C1C2C3C41OC(C)=O` (centres undefined), the TGI in the test on SK-MEL-2 melanoma, in the test with HL-60(TB) leukemia, in the test with A549 NSCLC, in the test on SK-MEL-28 melanoma, in the test with NCI/ADR-RES ovarian and in the test on HCC-2998 colon was over 100 µM in each case. Also, the total growth inhibition concentration (TGI) in the test on MDA-MB-231 breast, in the test on DU-145 prostate, in the test with IGROV1 ovarian, in the test with OVCAR-5 ovarian and with UACC-62 melanoma was over 100 µM throughout.
On to `COc1ccc2nc(-c3ccccc3)cc(OCC(=O)O)c2c1`, for which the TGI in the test on SK-MEL-2 melanoma, with HL-60(TB) leukemia, with A549 NSCLC, in the test with SK-MEL-28 melanoma, in the test on NCI/ADR-RES ovarian and in the test on HCC-2998 colon was over 100 µM throughout. Moreover, the TGI in the test with MDA-MB-231 breast, with DU-145 prostate, in the test with IGROV1 ovarian, in the test on OVCAR-5 ovarian and in the test on UACC-62 melanoma was over 100 µM throughout.
Take `O=C(O)CCS/C(=C\C(SCCC(=O)O)c1ccc(Cl)cc1)c1ccc(Cl)cc1` (centres undefined): the total growth inhibition concentration (TGI) in the test on SK-MEL-2 melanoma was 74.4 µM; in the test with HL-60(TB) leukemia, over 100 µM; with A549 NSCLC it was over 100 µM; with SK-MEL-28 melanoma it was over 100 µM; in the test with NCI/ADR-RES ovarian it was over 100 µM; in the test with HCC-2998 colon, 54.7 µM. For the same compound, the TGI in the test with MDA-MB-231 breast is over 100 µM; in the test with DU-145 prostate, over 100 µM; in the test on IGROV1 ovarian, over 100 µM; in the test on OVCAR-5 ovarian it was over 100 µM; with UACC-62 melanoma it was 38.4 µM.
